The values that follow come from ChEMBL document CHEMBL2384963, “Diterpenoids from the twigs and leaves of Fokienia hodginsii” (J Nat Prod, 2013).

The test system of the first experiment is SW480. As to the kind of experiment: Cytotoxicity against human SW480 cells after 48 hrs by MTT assay. It is filed as functional, cell-based. Conditions: SW480, 48 h.
In the case of `C=CC(=C)CC[C@@H]1[C@@]2(C)CCC[C@](C)(COC(=O)/C=C\c3ccc(O)c(OC)c3)[C@@H]2CC[C@@]1(C)O`, the 50% inhibitory concentration (IC50) (commonly the concentration at which inhibition is half-maximal) turned out to be 17.6 µM.
On to `CC(C)C1=C[C@]2(O)CC[C@H]3C(C)(C)CCC[C@]3(O)CC2=CC1=O`, for which the concentration for half-maximal inhibition (IC50) is more than 40 µM.
Still for that read-out and setting: then `C=C[C@]1(C)C=C2CC[C@H]3C(C)(C)CCC[C@]3(C)[C@H]2[C@H](O)C1`, with more than 40 µM.
`C=CC(=C)[C@@H](O)C[C@H]1C(=C)CC[C@@H]2[C@]1(C)CCC[C@]2(C)C(=O)O` came in with an IC50 of more than 40 µM.
On the same count and under the same terms, then `C=C/C(C)=C/C[C@H]1C(=C)CC[C@@H]2[C@]1(C)CCC[C@]2(C)C=O`, with more than 40 µM.
As to `C=C1CC[C@@H]2[C@](C)(CCC[C@]2(C)C(=O)O)[C@H]1C/C=C(\C)C=O`, the IC50 was more than 40 µM.
Consider `C=C/C(C)=C/C[C@H]1C(=C)CC[C@@H]2[C@]1(C)CCC[C@]2(C)C(=O)O`, for which the half-inhibitory concentration (IC50) was more than 40 µM.
Regarding `CC(C)c1cc2c(cc1O)[C@@]1(C)CCCC(C)(C)[C@@H]1CC2` [FERRUGINOL], the IC50 was more than 40 µM.
On the same count and under the same terms, under `C=C1CC[C@@H]2[C@](C)(CCC[C@]2(C)C(=O)O)[C@H]1CC/C(C)=C/CO` [ISOCUPRESSIC ACID] stands more than 40 µM; under `C=C1CC[C@@H]2[C@](C)(CCC[C@]2(C)C(=O)O)[C@H]1CCC1=CCOC1=O` [PINUSOLIDIC ACID], more than 40 µM; under `CC(C)c1cc2c(cc1O)[C@@]1(C=O)CCCC(C)(C)[C@@H]1CC2` [PISIFERAL], 14.4 µM.
Still for that read-out and setting: then `CC(C)c1cc2c(cc1O)[C@@]1(CO)CCCC(C)(C)[C@@H]1CC2` [PISIFEROL], with more than 40 µM.
For the compound `C=C[C@]1(C)C=C2CC[C@H]3[C@](C)(CO)[C@@H](O)CC[C@]3(C)[C@H]2CC1` [SANDARACOPIMARADIENEDIOL], the half-maximal inhibitory concentration (IC50) was more than 40 µM.
The same measure, in the same setting: under `C=C[C@]1(C)C=C2CC[C@@H]3[C@](C)(CCC[C@@]3(C)C(=O)O)[C@H]2CC1` [SANDARACOPIMARIC ACID] stands more than 40 µM.

For a further experiment, the system named is SMMC-7721. Put plainly: Cytotoxicity against human SMMC7721 cells after 48 hrs by MTT assay. It is filed as functional, cell-based. Conditions: SMMC-7721, 48 h. On the technique in general: Tetrazolium assays rely on reduction of a dye to a coloured formazan, in cell work by metabolically active cells.
The compound `C=CC(=C)CC[C@@H]1[C@@]2(C)CCC[C@](C)(COC(=O)/C=C\c3ccc(O)c(OC)c3)[C@@H]2CC[C@@]1(C)O` displayed a concentration for half-maximal inhibition (IC50) of 7.5 µM.
Turning to `CC(C)C1=C[C@]2(O)CC[C@H]3C(C)(C)CCC[C@]3(O)CC2=CC1=O`, the IC50 is more than 40 µM.
Take `C=C[C@]1(C)C=C2CC[C@H]3C(C)(C)CCC[C@]3(C)[C@H]2[C@H](O)C1`: the IC50 is more than 40 µM.
As to `C=CC(=C)[C@@H](O)C[C@H]1C(=C)CC[C@@H]2[C@]1(C)CCC[C@]2(C)C(=O)O`, the 50% inhibitory concentration (IC50) was more than 40 µM.
Consider `C=C/C(C)=C/C[C@H]1C(=C)CC[C@@H]2[C@]1(C)CCC[C@]2(C)C=O`, for which the concentration for half-maximal inhibition (IC50) is more than 40 µM.
For `C=C1CC[C@@H]2[C@](C)(CCC[C@]2(C)C(=O)O)[C@H]1C/C=C(\C)C=O`, the IC50 was more than 40 µM.
The same measure, in the same setting: then `C=C/C(C)=C/C[C@H]1C(=C)CC[C@@H]2[C@]1(C)CCC[C@]2(C)C(=O)O`, with more than 40 µM; and `CC(C)c1cc2c(cc1O)[C@@]1(C)CCCC(C)(C)[C@@H]1CC2` [FERRUGINOL], with more than 40 µM.
Regarding `C=C1CC[C@@H]2[C@](C)(CCC[C@]2(C)C(=O)O)[C@H]1CC/C(C)=C/CO` [ISOCUPRESSIC ACID], the IC50 is more than 40 µM.
Regarding `C=C1CC[C@@H]2[C@](C)(CCC[C@]2(C)C(=O)O)[C@H]1CCC1=CCOC1=O` [PINUSOLIDIC ACID], the IC50 is more than 40 µM.
The compound `CC(C)c1cc2c(cc1O)[C@@]1(C=O)CCCC(C)(C)[C@@H]1CC2` [PISIFERAL] returned an IC50 of 19.7 µM.
Regarding `CC(C)c1cc2c(cc1O)[C@@]1(CO)CCCC(C)(C)[C@@H]1CC2` [PISIFEROL], the IC50 was more than 40 µM.
Same read-out and setting: then `C=C[C@]1(C)C=C2CC[C@H]3[C@](C)(CO)[C@@H](O)CC[C@]3(C)[C@H]2CC1` [SANDARACOPIMARADIENEDIOL], with more than 40 µM; and `C=C[C@]1(C)C=C2CC[C@@H]3[C@](C)(CCC[C@@]3(C)C(=O)O)[C@H]2CC1` [SANDARACOPIMARIC ACID], with more than 40 µM.

The test system of a further experiment is MCF7. Put plainly: Cytotoxicity against human MCF7 cells after 48 hrs by MTT assay. The class given is functional, cell-based. The conditions noted are these: MCF7, 48 h.
`C=CC(=C)CC[C@@H]1[C@@]2(C)CCC[C@](C)(COC(=O)/C=C\c3ccc(O)c(OC)c3)[C@@H]2CC[C@@]1(C)O` registered an IC50 of 15.4 µM.
Consider `CC(C)C1=C[C@]2(O)CC[C@H]3C(C)(C)CCC[C@]3(O)CC2=CC1=O`, for which the half-inhibitory concentration (IC50) was more than 40 µM.
The compound `C=C[C@]1(C)C=C2CC[C@H]3C(C)(C)CCC[C@]3(C)[C@H]2[C@H](O)C1` gave a half-inhibitory concentration (IC50) of more than 40 µM.
Take `C=CC(=C)[C@@H](O)C[C@H]1C(=C)CC[C@@H]2[C@]1(C)CCC[C@]2(C)C(=O)O`: the IC50 was more than 40 µM.
For `C=C/C(C)=C/C[C@H]1C(=C)CC[C@@H]2[C@]1(C)CCC[C@]2(C)C=O`, the half-inhibitory concentration (IC50) is more than 40 µM.
On the same count and under the same terms, then `C=C1CC[C@@H]2[C@](C)(CCC[C@]2(C)C(=O)O)[C@H]1C/C=C(\C)C=O`, with more than 40 µM.
On to `C=C/C(C)=C/C[C@H]1C(=C)CC[C@@H]2[C@]1(C)CCC[C@]2(C)C(=O)O`, for which the half-maximal inhibitory concentration (IC50) was more than 40 µM.
Regarding `CC(C)c1cc2c(cc1O)[C@@]1(C)CCCC(C)(C)[C@@H]1CC2` [FERRUGINOL], the IC50 was more than 40 µM.
On to `C=C1CC[C@@H]2[C@](C)(CCC[C@]2(C)C(=O)O)[C@H]1CC/C(C)=C/CO` [ISOCUPRESSIC ACID], for which the IC50 was more than 40 µM.
`C=C1CC[C@@H]2[C@](C)(CCC[C@]2(C)C(=O)O)[C@H]1CCC1=CCOC1=O` [PINUSOLIDIC ACID]: the IC50 is more than 40 µM.
In the case of `CC(C)c1cc2c(cc1O)[C@@]1(C=O)CCCC(C)(C)[C@@H]1CC2` [PISIFERAL], 15.6 µM corresponded to half-maximal inhibition (IC50).
As to `CC(C)c1cc2c(cc1O)[C@@]1(CO)CCCC(C)(C)[C@@H]1CC2` [PISIFEROL], the IC50 is more than 40 µM.
`C=C[C@]1(C)C=C2CC[C@H]3[C@](C)(CO)[C@@H](O)CC[C@]3(C)[C@H]2CC1` [SANDARACOPIMARADIENEDIOL]: the IC50 is more than 40 µM.
Same read-out and setting: under `C=C[C@]1(C)C=C2CC[C@@H]3[C@](C)(CCC[C@@]3(C)C(=O)O)[C@H]2CC1` [SANDARACOPIMARIC ACID] stands more than 40 µM.

A further experiment relates to HL-60. As to the kind of experiment: Cytotoxicity against human HL60 cells after 48 hrs by MTT assay. The conditions noted are these: HL-60, 48 h. It is filed as functional, cell-based.
`C=CC(=C)CC[C@@H]1[C@@]2(C)CCC[C@](C)(COC(=O)/C=C\c3ccc(O)c(OC)c3)[C@@H]2CC[C@@]1(C)O` registered an IC50 of 9.1 µM.
`CC(C)C1=C[C@]2(O)CC[C@H]3C(C)(C)CCC[C@]3(O)CC2=CC1=O` registered an IC50 of more than 40 µM.
Compound `C=C[C@]1(C)C=C2CC[C@H]3C(C)(C)CCC[C@]3(C)[C@H]2[C@H](O)C1` came in with a half-maximal inhibitory concentration (IC50) of more than 40 µM.
On the same count and under the same terms, then `C=CC(=C)[C@@H](O)C[C@H]1C(=C)CC[C@@H]2[C@]1(C)CCC[C@]2(C)C(=O)O`, with more than 40 µM; and `C=C/C(C)=C/C[C@H]1C(=C)CC[C@@H]2[C@]1(C)CCC[C@]2(C)C=O`, with more than 40 µM.
Take `C=C1CC[C@@H]2[C@](C)(CCC[C@]2(C)C(=O)O)[C@H]1C/C=C(\C)C=O`: the IC50 was more than 40 µM.
In the case of `C=C/C(C)=C/C[C@H]1C(=C)CC[C@@H]2[C@]1(C)CCC[C@]2(C)C(=O)O`, the IC50 is more than 40 µM.
Take `CC(C)c1cc2c(cc1O)[C@@]1(C)CCCC(C)(C)[C@@H]1CC2` [FERRUGINOL]: the IC50 is more than 40 µM.
The same measure, in the same setting: then `C=C1CC[C@@H]2[C@](C)(CCC[C@]2(C)C(=O)O)[C@H]1CC/C(C)=C/CO` [ISOCUPRESSIC ACID], with more than 40 µM; and `C=C1CC[C@@H]2[C@](C)(CCC[C@]2(C)C(=O)O)[C@H]1CCC1=CCOC1=O` [PINUSOLIDIC ACID], with more than 40 µM; and `CC(C)c1cc2c(cc1O)[C@@]1(C=O)CCCC(C)(C)[C@@H]1CC2` [PISIFERAL], with 14.3 µM.
Regarding `CC(C)c1cc2c(cc1O)[C@@]1(CO)CCCC(C)(C)[C@@H]1CC2` [PISIFEROL], the IC50 was more than 40 µM.
With `C=C[C@]1(C)C=C2CC[C@H]3[C@](C)(CO)[C@@H](O)CC[C@]3(C)[C@H]2CC1` [SANDARACOPIMARADIENEDIOL], the 50% inhibitory concentration (IC50) was more than 40 µM.
`C=C[C@]1(C)C=C2CC[C@@H]3[C@](C)(CCC[C@@]3(C)C(=O)O)[C@H]2CC1` [SANDARACOPIMARIC ACID] yielded a half-maximal inhibitory concentration (IC50) of more than 40 µM.

In a further experiment the test system is A549. Put plainly: Cytotoxicity against human A549 cells after 48 hrs by MTT assay. It is filed as functional, cell-based. The conditions noted are these: A549, 48 h.
`C=CC(=C)CC[C@@H]1[C@@]2(C)CCC[C@](C)(COC(=O)/C=C\c3ccc(O)c(OC)c3)[C@@H]2CC[C@@]1(C)O` registered a half-maximal inhibitory concentration (IC50) of 17.3 µM.
`CC(C)C1=C[C@]2(O)CC[C@H]3C(C)(C)CCC[C@]3(O)CC2=CC1=O`: the IC50 is more than 40 µM.
For `C=C[C@]1(C)C=C2CC[C@H]3C(C)(C)CCC[C@]3(C)[C@H]2[C@H](O)C1`, the half-maximal inhibitory concentration (IC50) is more than 40 µM.
`C=CC(=C)[C@@H](O)C[C@H]1C(=C)CC[C@@H]2[C@]1(C)CCC[C@]2(C)C(=O)O` showed an IC50 of more than 40 µM.
`C=C/C(C)=C/C[C@H]1C(=C)CC[C@@H]2[C@]1(C)CCC[C@]2(C)C=O`: the IC50 is more than 40 µM.
`C=C1CC[C@@H]2[C@](C)(CCC[C@]2(C)C(=O)O)[C@H]1C/C=C(\C)C=O` displayed a concentration for half-maximal inhibition (IC50) of more than 40 µM.
Regarding `C=C/C(C)=C/C[C@H]1C(=C)CC[C@@H]2[C@]1(C)CCC[C@]2(C)C(=O)O`, the half-maximal inhibitory concentration (IC50) was more than 40 µM.
In turn, `CC(C)c1cc2c(cc1O)[C@@]1(C)CCCC(C)(C)[C@@H]1CC2` [FERRUGINOL] came in with a 50% inhibitory concentration (IC50) of more than 40 µM.
Compound `C=C1CC[C@@H]2[C@](C)(CCC[C@]2(C)C(=O)O)[C@H]1CC/C(C)=C/CO` [ISOCUPRESSIC ACID] yielded a 50% inhibitory concentration (IC50) of more than 40 µM.
The same measure, in the same setting: under `C=C1CC[C@@H]2[C@](C)(CCC[C@]2(C)C(=O)O)[C@H]1CCC1=CCOC1=O` [PINUSOLIDIC ACID] stands more than 40 µM; under `CC(C)c1cc2c(cc1O)[C@@]1(C=O)CCCC(C)(C)[C@@H]1CC2` [PISIFERAL], 21 µM; under `CC(C)c1cc2c(cc1O)[C@@]1(CO)CCCC(C)(C)[C@@H]1CC2` [PISIFEROL], more than 40 µM.
In turn, `C=C[C@]1(C)C=C2CC[C@H]3[C@](C)(CO)[C@@H](O)CC[C@]3(C)[C@H]2CC1` [SANDARACOPIMARADIENEDIOL] had a 50% inhibitory concentration (IC50) of more than 40 µM.
On to `C=C[C@]1(C)C=C2CC[C@@H]3[C@](C)(CCC[C@@]3(C)C(=O)O)[C@H]2CC1` [SANDARACOPIMARIC ACID], for which the half-inhibitory concentration (IC50) is more than 40 µM.
